Active and inactive are the calls of the source. The calls are words filed in the database; no cut-off is given here.
Experiments:
MX1 [1] = assay: Induction of apoptosis in human MX1 cells assessed as necrotic cells measured at 0.5 uM after 48 hrs by FITC-Annexin-V and propidium iodide based flow cytometric analysis (reference value: 0.055 %); assay type: functional
MX1 [2] = assay: Induction of apoptosis in human MX1 cells assessed as downregulation of Bcl-2 by Western blotting analysis; assay type: functional, cell-based; conditions: dose 0.5-2 µM
MX1 [3] = assay: Induction of apoptosis in human MX1 cells assessed as viable cells measured at 5 uM after 48 hrs by FITC-Annexin-V and propidium iodide based flow cytometric analysis (reference value: 88.4%); assay type: functional; conditions: read-out: Activity
MX1 [4] = assay: Induction of apoptosis in human MX1 cells assessed as late apoptotic cells measured at 0.5 uM after 48 hrs by FITC-Annexin-V and propidium iodide based flow cytometric analysis (reference value: 5.24%); assay type: functional
MX1 [5] = assay: Inhibition of PI3K/Akt signaling in human MX1 cells assessed as decrease in phosphorylated S6 expression incubated for 24 hrs by Western blotting analysis; assay type: cell-based; conditions: dose 0.5-5 µM
MX1 [6] = assay: Induction of cell cycle arrest in human MX-1 cells assessed as accumulation of cells at G0/G1 phase incubated for 24 hrs by propidium iodide staining based FACS calibur flow cytometeric analysis; assay type: functional; conditions: dose 0.5-2 µM
MX1 [7] = assay: Induction of apoptosis in human MX1 cells assessed as viable cells measured at 0.5 uM after 48 hrs by FITC-Annexin-V and propidium iodide based flow cytometric analysis (reference value: 88.4%); assay type: functional; conditions: read-out: Activity
MDA-MB-231 [8] = assay: Induction of apoptosis in human MDA-MB-231 cells assessed as late apoptotic cells measured at 0.5 uM after 48 hrs by FITC-Annexin-V and propidium iodide based flow cytometric analysis (reference value: 2.68%); assay type: functional
MDA-MB-231 [9] = assay: Induction of apoptosis in human MDA-MB-231 cells assessed as early apoptotic cells measured at 2 uM after 48 hrs by FITC-Annexin-V and propidium iodide based flow cytometric analysis (reference value: 2.71%); assay type: functional
MDA-MB-231 [10] = assay: Induction of apoptosis in human MDA-MB-231 cells assessed as necrotic cells measured at 5 uM after 48 hrs by FITC-Annexin-V and propidium iodide based flow cytometric analysis (reference value: 0.253 %); assay type: functional
MDA-MB-231 [11] = assay: Induction of apoptosis in human MDA-MB-231 cells assessed as early apoptotic cells measured at 5 uM after 48 hrs by FITC-Annexin-V and propidium iodide based flow cytometric analysis (reference value: 2.71%); assay type: functional
MX1 [12] = assay: Induction of cell cycle arrest in human MX1 cells assessed as decrease in accumulation of cells at S phase at 0.5 to 2 uM measured after 24 hrs by propidium iodide staining based FACS calibur flow cytometeric analysis; assay type: functional; conditions: dose 0.5-2 µM
MDA-MB-231 [13] = assay: Antiproliferative activity against human MDA-MB-231 cells assessed as reduction in cell viability after 96 hrs by MTT assay; assay type: functional, cell-based; conditions: MDA-MB-231, 96 h
MDA-MB-231 [14] = assay: Induction of cell cycle arrest in human MDA-MB-231 cells assessed as accumulation of cells at G0/G1 phase incubated for 24 hrs by propidium iodide staining based FACS calibur flow cytometeric analysis; assay type: functional; conditions: dose 0.5-2 µM
MX1 [15] = assay: Induction of apoptosis in human MX1 cells assessed as viable cells measured at 2 uM after 48 hrs by FITC-Annexin-V and propidium iodide based flow cytometric analysis (reference value: 88.4%); assay type: functional; conditions: read-out: Activity
MX1 [16] = assay: Induction of apoptosis in human MX1 cells assessed as early apoptotic cells measured at 5 uM after 48 hrs by FITC-Annexin-V and propidium iodide based flow cytometric analysis (reference value: 6.30%); assay type: functional
MX1 [17] = assay: Induction of apoptosis in human MX1 cells assessed as necrotic cells measured at 2 uM after 48 hrs by FITC-Annexin-V and propidium iodide based flow cytometric analysis (reference value: 0.055 %); assay type: functional
MDA-MB-231 [18] = assay: Induction of apoptosis in human MDA-MB-231 cells assessed as late apoptotic cells measured at 1 uM after 48 hrs by FITC-Annexin-V and propidium iodide based flow cytometric analysis (reference value: 2.68%); assay type: functional
MDA-MB-231 [19] = assay: Antiproliferative activity against human MDA-MB-231 cells assessed as decrease in number of colony formation at 0.25 uM measured after 14 days by crystal violet staining based analysis; assay type: functional, cell-based; conditions: time 14.0 day
MX1 [20] = assay: Induction of apoptosis in human MX1 cells assessed as early apoptotic cells measured at 0.5 uM after 48 hrs by FITC-Annexin-V and propidium iodide based flow cytometric analysis (reference value: 6.30%); assay type: functional
MDA-MB-231 [21] = assay: Induction of apoptosis in human MDA-MB-231 cells assessed as late apoptotic cells measured at 2 uM after 48 hrs by FITC-Annexin-V and propidium iodide based flow cytometric analysis (reference value: 2.68%); assay type: functional
MX1 [22] = assay: Induction of morphological changes in human MX1 cells at 0.5 to 2 uM measured after 24 hrs by bright field inverted microscopic analysis; assay type: functional, cell-based; conditions: dose 0.5-2 µM
MDA-MB-231 [23] = assay: Antitumor activity against human MDA-MB-231 cells xenografted in BALBC mouse assessed as inhibition of tumor growth at 150 mg/kg, IG administered every 3 days for 21 days relative to control; assay type: functional; conditions: MDA-MB-231, po, 504 h, time 21 day, read-out: TGI
MDA-MB-231 [24] = assay: Induction of apoptosis in human MDA-MB-231 cells assessed as viable cells measured at 0.5 uM after 48 hrs by FITC-Annexin-V and propidium iodide based flow cytometric analysis (reference value: 94.4% ); assay type: functional; conditions: read-out: Activity
MX1 [25] = assay: Induction of apoptosis in human MX1 cells assessed as late apoptotic cells measured at 5 uM after 48 hrs by FITC-Annexin-V and propidium iodide based flow cytometric analysis (reference value: 5.24%); assay type: functional
MX1 [26] = assay: Induction of apoptosis in human MX1 cells assessed as late apoptotic cells measured at 1 uM after 48 hrs by FITC-Annexin-V and propidium iodide based flow cytometric analysis (reference value: 5.24%); assay type: functional
MDA-MB-231 [27] = assay: Induction of cell cycle arrest in human MDA-MB-231 cells assessed as decrease in cyclin B1 expression at 0.5 to 2 uM by Western blotting analysis; assay type: functional, cell-based; conditions: dose 0.5-2 µM, time 24.0 hrs
MDA-MB-231 [28] = assay: Inhibition of PI3K/Akt signaling in human MDA-MB-231 cells assessed as decrease in phosphorylated S6 expression incubated for 24 hrs by Western blotting analysis; assay type: cell-based; conditions: dose 0.5-2 µM
MX1 [29] = assay: Induction of morphological changes in human MX1 cells assessed as decrease in cell number at 0.5 to 2 uM measured after 24 hrs by bright field inverted microscopic analysis; assay type: functional, cell-based; conditions: dose 0.5-2 µM
MDA-MB-231 [30] = assay: Induction of morphological changes in human MDA-MB-231 cells assessed as decrease in cell number at 0.5 to 2 uM measured after 24 hrs by bright field inverted microscopic analysis; assay type: functional, cell-based; conditions: dose 0.5-2 µM
MX1 [31] = assay: Induction of morphological changes in human MX1 cells assessed as decrease in cell size at 0.5 to 2 uM measured after 24 hrs by bright field inverted microscopic analysis; assay type: functional, cell-based; conditions: dose 0.5-2 µM
MDA-MB-231 [32] = assay: Induction of morphological changes in human MDA-MB-231 cells at 0.5 to 2 uM measured after 24 hrs by bright field inverted microscopic analysis; assay type: functional, cell-based; conditions: dose 0.5-2 µM
[33] = Toxicity in BALBC mouse xenografted with human MDA-MB-231 cells assessed as weight loss at 50 to 150 mg/kg, IG administered every 3 days for 21 days; assay type: organism-based; conditions: in vivo, po, 504 h, dose 50-150 mg/kg, time 21 day

- IC50 (MDA-MB-231 [13]): 0.05 µM
Compound: CC1(C)C=Cc2c(c(/C=C/C(=O)NCCOc3no[n+]([O-])c3S(=O)(=O)c3ccccc3)cc3c2[nH]c2ccc(C(C)(C)C)cc23)O1
- Activity (MX1 [1]): 0.202%
- Activity (MX1 [2]): Dose-Dependent Effect
- viability at 5 µM (MX1 [3]): 27.5%
- Activity (MX1 [4]): 5.2%
- inhibition (MX1 [5]): Dose-Dependent Effect
- Activity (MX1 [6]): Dose-Dependent Effect
- viability at 0.5 µM (MX1 [7]): 54.8%
- Activity (MDA-MB-231 [8]): 3.85%
- Activity (MDA-MB-231 [9]): 10.8%
- Activity (MDA-MB-231 [10]): 0.867%
- Activity (MDA-MB-231 [11]): 31.2%
- Activity (MX1 [12]): Active
- Activity (MDA-MB-231 [14]): Dose-Dependent Effect
- viability at 2 µM (MX1 [15]): 11.9%
- Activity (MX1 [16]): 57.8%
- Activity (MX1 [17]): 0.043%
- Activity (MDA-MB-231 [18]): 4.85%
- Activity (MDA-MB-231 [19]): Active
- Activity (MX1 [20]): 39.8%
- Activity (MDA-MB-231 [21]): 12.8%
- Activity (MX1 [22]): Active
- inhibition in vivo at 150 mg/kg (MDA-MB-231 [23]): 53.6%
- viability at 0.5 µM (MDA-MB-231 [24]): 92.4%
- Activity (MX1 [25]): 14.5%
- Activity (MX1 [26]): 8.1%
- Activity (MDA-MB-231 [27]): Active
- inhibition (MDA-MB-231 [28]): Active
- Activity (MX1 [29]): Active
- Activity (MDA-MB-231 [30]): Active
- Activity (MX1 [31]): Active
- Activity (MDA-MB-231 [32]): Active
- Activity [33]: Non-Toxic
